{"source": "patent US9834773B2", "about": "“Methods and means for metabolic engineering and improved product formation by micro-organisms” (Universiteit Leiden, priority 2006, dated 2017)", "target": "DasR (Streptomyces coelicolor, UniProt Q9K492)", "sequence (Q9K492 whole entry)": "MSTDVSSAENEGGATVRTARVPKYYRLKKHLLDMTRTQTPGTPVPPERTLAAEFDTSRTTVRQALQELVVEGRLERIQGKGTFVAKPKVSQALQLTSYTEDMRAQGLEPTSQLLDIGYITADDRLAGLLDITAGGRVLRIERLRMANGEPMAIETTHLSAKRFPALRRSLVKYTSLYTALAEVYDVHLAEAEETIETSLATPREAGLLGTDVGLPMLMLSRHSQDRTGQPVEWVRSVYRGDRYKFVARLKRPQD", "assay": "EMSA binding interference experiment: ability of compounds to interfere with binding of DasR to the nagB and crr promoters", "conditions": "for effect on formation of the complex of DasR with the nagB promoter (EMSA): 10 nM fluorescent probe, 3 μM purified DasR, 500-fold excess of non-specific DNA, 50, 100, 150, and 200 mM compound; for effect on formation of the complex of DasR with the crr promoter region (EMSA): data not shown", "procedure": "FIG. 12. […] EMSAs were performed with 10 nM fluorescent probe, 3 μM purified DasR, and 500-fold excess of non-specific DNA.\nEMSAs were performed with fluorescent probes (10 nM) with an ALF express sequencer (Filee et al., 2001). Purified DasR (3 μM) and 1000-fold excess of non-specific DNA were used in the reaction mixture. Predicted cis-acting elements were taken from the promoter regions of actII-ORF4 (SCO5085; 5′-[…]-3′ (SEQ ID NO:530)), and redZ (SCO5881; 5′-[…]-3′ (SEQ ID NO:531)). Known cis-acting elements upstream of crr (SCO1390; […]-3′ (SEQ ID NO:532)), and crp (SCO3571; 5′-[…]-3′ (SEQ ID NO:533)) were used as positive and negative controls, respectively. The 16 nt dre sites are underlined.\nA pivotal question is what is the effector molecule that modulates DasR? As shown in here, many of the targets for DasR relate to the generation (chitinolytic system), transport (PTS^GlcNAc), and metabolism (glycolysis via fructose 6-P) of N-acetylglucosamine. We therefore looked for the inducer among the intermediate molecules that gravitate around aminosugar metabolism. A binding interference experiment was set up where the ability of compounds to interfere with binding of dasR to the nagB and crr promoters was tested. […] The finding that glucosamine-6-P serves as an effector of DasR is explained by its central position at the metabolic crossroads between (GlcNAc)n extracellular degradation, N-acetylglucosamine transport and intracellular metabolism, lipid and nitrogen metabolism, glycolysis, and peptidoglycan synthesis (FIG. 13)."}
{"smiles": "NC(=O)CC[C@H](N)C(=O)O", "note": "[glutamine]", "values": [{"measurement": "effect on formation of the complex of DasR with the nagB promoter (EMSA)", "value": "it was the only of the compounds tested that prevented the formation of a complex"}, {"measurement": "effect on formation of the complex of DasR with the crr promoter region (EMSA)", "value": "it was the only of the compounds tested that prevented the formation of a complex"}]}
{"smiles": "CC(=O)SCCNC(=O)CCNC(=O)[C@H](O)C(C)(C)COP(=O)(O)OP(=O)(O)OC[C@H]1O[C@@H](n2cnc3c(N)ncnc32)[C@H](O)[C@@H]1OP(=O)(O)O", "note": "[acetyl-CoA]", "values": [{"measurement": "effect on formation of the complex of DasR with the nagB promoter (EMSA)", "value": "it was the only of the compounds tested that prevented the formation of a complex"}, {"measurement": "effect on formation of the complex of DasR with the crr promoter region (EMSA)", "value": "it was the only of the compounds tested that prevented the formation of a complex"}]}
{"smiles": "O=C(CO)[C@@H](O)[C@H](O)[C@H](O)COP(=O)(O)O", "note": "[fructose 6-P]", "values": [{"measurement": "effect on formation of the complex of DasR with the nagB promoter (EMSA)", "value": "it was the only of the compounds tested that prevented the formation of a complex"}, {"measurement": "effect on formation of the complex of DasR with the crr promoter region (EMSA)", "value": "it was the only of the compounds tested that prevented the formation of a complex"}]}
{"smiles": "N[C@@H](CCC(=O)O)C(=O)O", "note": "[glutamate]", "values": [{"measurement": "effect on formation of the complex of DasR with the nagB promoter (EMSA)", "value": "it was the only of the compounds tested that prevented the formation of a complex"}, {"measurement": "effect on formation of the complex of DasR with the crr promoter region (EMSA)", "value": "it was the only of the compounds tested that prevented the formation of a complex"}]}
{"smiles": "CC(=O)N[C@H]1C(O)O[C@H](COP(=O)(O)O)[C@@H](O)[C@@H]1O", "note": "(stereo partly shown) [N-acetylglucosamine-6-P]", "values": [{"measurement": "effect on formation of the complex of DasR with the nagB promoter (EMSA)", "value": "it was the only of the compounds tested that prevented the formation of a complex"}, {"measurement": "effect on formation of the complex of DasR with the crr promoter region (EMSA)", "value": "it was the only of the compounds tested that prevented the formation of a complex"}]}
{"smiles": "N[C@H]1C(O)O[C@H](COP(=O)(O)O)[C@@H](O)[C@@H]1O", "note": "(stereo partly shown) [glucosamine-6-P, glucosamine-6-phosphate]", "values": [{"measurement": "effect on formation of the complex of DasR with the nagB promoter (EMSA)", "value": "prevented the formation of a complex"}, {"measurement": "effect on formation of the complex of DasR with the nagB promoter (EMSA)", "setting": "listed as GlcN-6-P", "value": "release of DasR from the dre site"}, {"measurement": "effect on formation of the complex of DasR with the crr promoter region (EMSA)", "value": "prevented the formation of a complex"}]}
